Data reported in PMC10511816 (The Journal of Biological Chemistry, 2023).
Where “and” joins values, the source holds several entries; their conditions need not be identical. Equal entries are not always repeated.

What was measured:
XO type enzyme = biological target: T1, XO type enzyme (Bos taurus, UniProt P80457); experiment: half-life of the Ered•oxypurinol complex (activity recovery); assay type: biochemical, bovine
T1 construct: Bovine milk was obtained from the animal farm of the Nippon Veterinary and Life Science University; from tissue; host or cells: bovine milk
Experimental: We next examined the half-life of the Ered•oxypurinol complex under more physiological conditions.
The main figure plots activity (%) against time.
Uric acid production was measured at 295 nm with UV-1800 Spectrophotometer at 25 °C. The activity recovery was followed overtime until the activity to flavin ratio reached approximately 200, indicating full reactivation.

XOR [1] = conditions: pH 8.5 and 25 °C; cited from earlier work
xanthine oxidase = system: xanthine oxidase; design: method as in Graham et al. 64; conditions: ref Graham et al. 64; cited from earlier work
XO [2] = biological target: T2, XO (Bos taurus, UniProt P80457); experiment: initial-velocity steady-state kinetics of XO, O2 as electron acceptor; assay type: biochemical, bovine; design: Bovine milk was obtained from the animal farm of the Nippon Veterinary and Life Science University; from tissue; host or cells: bovine milk
Experimental: (§1) Bovine milk was obtained from the animal farm of the Nippon Veterinary and Life Science University. […] The dehydrogenase form of the enzyme (XDH) was obtained by reacting XO immediately upon purification with 5 mM DTT at pH 8.5, 25 °C for 1 h. XO and XDH assays were carried out at 25 °C under aerobic conditions. […] A total of 500 μM β-NAD^+ was added to the same reaction solution for XDH activity. Physiological conditions such as pH 7.4 (0.1 M potassium phosphate buffer (KPB), 0.2 mM EDTA) and the addition of 50 μM β-NADH were also used. The activity was measured by following 295 nm and 340 nm on a UV-1800 or UV1900i spectrophotometer. […] In addition, the enzyme reaction solution was quenched with perchloric acid and neutralized with K2CO3, with products analyzed using HPLC as described below. Spectrophotometric data were analyzed using UV-Probe software Ver. 2.70 or LabSolutions UV-Vis Ver. […] Kinetic parameters were determined from nonlinear curve fits of raw data using GraphPad Prism 9 software.
A295 indicates the concentration of uric acid yielded by XOR. […] A295 indicates the concentration of uric acid yielded by XOR. Figure S2. The XOR inhibition mode of oxypurinol.A–G, Lineweaver-Burk plots were generated to visualize data and estimated the inhibition patterns. Data are representative of least two independent experiments. […] Figure S3. […] B, mode of inhibition of oxypurinol on the inosine degradation reaction of PNP. […] 0, 250, 375, 500, 750 and 1000 μM of oxypurinol were used. […] The rate of NAD^+ conversion to NADH was measured at A340 nm.

XDH = XDH (Bos taurus, UniProt P80457); conditions: 2 μM hypoxanthine, 500 μM β-NAD+, 6 nM XDH, pH 8.5, 25 °C
Experimental: The rate of NAD^+ conversion to NADH was measured at A340 nm.
as §1

XO [3] = biological target: T2, XO; conditions: 3 μM allopurinol, 2 μM xanthine, 2.56 nM XO, pH 7.4, 37 °C
[4] = biological target: T3, Purine nucleoside phosphorylase (PNP) (Homo sapiens, UniProt P00491); design: method as in PMID 5653179, PMID 121041; conditions: cited from earlier work
T3 construct: purchased Sigma-Aldrich; host or cells: E. coli
T3 sequence (P00491 1-289): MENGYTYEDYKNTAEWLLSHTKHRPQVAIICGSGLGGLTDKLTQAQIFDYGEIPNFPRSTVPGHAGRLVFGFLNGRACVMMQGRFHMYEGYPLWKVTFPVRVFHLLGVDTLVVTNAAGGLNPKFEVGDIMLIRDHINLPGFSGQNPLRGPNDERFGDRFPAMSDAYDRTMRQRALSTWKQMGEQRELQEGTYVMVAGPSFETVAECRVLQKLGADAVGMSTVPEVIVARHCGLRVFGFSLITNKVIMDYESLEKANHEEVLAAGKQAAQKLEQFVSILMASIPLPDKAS

XOR [5] = conditions: read-out: Ki for the xanthine to uric acid reaction; steady-state kinetic analysis; cited from earlier work

T2 sequence (P80457 whole entry): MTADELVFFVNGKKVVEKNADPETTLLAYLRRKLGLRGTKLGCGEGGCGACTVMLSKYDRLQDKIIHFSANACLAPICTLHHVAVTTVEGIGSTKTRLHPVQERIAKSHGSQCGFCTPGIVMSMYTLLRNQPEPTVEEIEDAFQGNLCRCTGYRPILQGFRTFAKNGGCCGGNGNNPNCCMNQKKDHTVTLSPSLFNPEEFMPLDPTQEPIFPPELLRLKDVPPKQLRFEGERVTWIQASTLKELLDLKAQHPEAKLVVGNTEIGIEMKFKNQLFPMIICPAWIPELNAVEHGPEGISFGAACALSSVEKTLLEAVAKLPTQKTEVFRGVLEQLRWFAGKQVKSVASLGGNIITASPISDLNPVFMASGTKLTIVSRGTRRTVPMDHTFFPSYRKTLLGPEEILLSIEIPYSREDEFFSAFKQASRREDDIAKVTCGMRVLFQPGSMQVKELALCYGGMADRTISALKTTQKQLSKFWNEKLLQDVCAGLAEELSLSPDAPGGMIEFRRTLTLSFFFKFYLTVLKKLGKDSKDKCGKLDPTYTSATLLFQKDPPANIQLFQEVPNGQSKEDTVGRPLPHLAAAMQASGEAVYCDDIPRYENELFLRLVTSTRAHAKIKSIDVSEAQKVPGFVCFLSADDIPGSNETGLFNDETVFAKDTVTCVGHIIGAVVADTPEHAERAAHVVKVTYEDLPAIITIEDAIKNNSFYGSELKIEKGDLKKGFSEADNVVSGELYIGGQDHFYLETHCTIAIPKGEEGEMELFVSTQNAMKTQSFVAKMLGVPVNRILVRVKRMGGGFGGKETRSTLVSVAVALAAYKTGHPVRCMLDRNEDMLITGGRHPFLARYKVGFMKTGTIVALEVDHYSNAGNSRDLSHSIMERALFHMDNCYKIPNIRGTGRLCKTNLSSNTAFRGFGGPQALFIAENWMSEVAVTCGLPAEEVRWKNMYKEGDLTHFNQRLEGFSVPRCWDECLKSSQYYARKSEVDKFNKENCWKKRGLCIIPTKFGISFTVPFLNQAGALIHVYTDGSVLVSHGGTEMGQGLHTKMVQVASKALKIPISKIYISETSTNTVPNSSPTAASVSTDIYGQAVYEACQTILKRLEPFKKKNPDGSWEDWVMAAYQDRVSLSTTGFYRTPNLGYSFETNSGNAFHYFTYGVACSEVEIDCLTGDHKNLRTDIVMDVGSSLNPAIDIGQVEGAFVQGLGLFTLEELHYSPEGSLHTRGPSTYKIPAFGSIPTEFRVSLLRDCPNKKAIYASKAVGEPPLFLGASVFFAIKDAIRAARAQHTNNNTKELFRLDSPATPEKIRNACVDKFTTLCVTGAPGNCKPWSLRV
T1 sequence (P80457 whole entry): as above
Sequence of XDH (P80457 whole entry): as above

| SMILES | half-life of the Ered•oxypurinol complex (XO type enzyme; pH 7.4, 25 °C) | half-life of the Ered•oxypurinol complex (XO type enzyme; pH 7.4, 37 °C) | half-life of the Ered•oxypurinol complex (XO type enzyme; pH 8.5, 37 °C) | half-life for reoxidation / dissociation of the Ered•oxypurinol complex (XOR [1]) | oxypurinol concentration at which xanthine oxidase is maximally inhibited (xanthine oxidase) | Ki (XO [2]) | Types of inhibition (XO [2]; XO, substrate xanthine, O2, 295 nm) | Ki for oxypurinol relative to Ki for allopurinol (XO [2]; both XO and XDH, allopurinol Ki ref 19) | concentration above which NADH formation is immediately inhibited (XDH) | immediate accumulation of oxypurinol (XO [3]) | time at which xanthine was completely converted to uric acid (XO [3]) | time for which uric acid production was stopped (XO [3]) | Ki [4] | Ki (XOR [5]) |
| --- | --- | --- | --- | --- | --- | --- | --- | --- | --- | --- | --- | --- | --- | --- |
| O=c1[nH]c(=O)c2c[nH]nc2[nH]1 [Oxypurinol] | 552 min and 551.9 min | 70 min and 72.9 min | 70 min and 70.6 min | 300 min | 33.75 µM | 6.35 ± 0.96 µM | Competitive | about 10 fold | – | – | – | – | – | – |
| Oc1ncnc2[nH]ncc12 [Allopurinol] | – | – | – | – | – | – | – | – | Above 5 μM | 0.5 µM | 300 min | up to 60 min | > 200 µM | 100 nM |
